Assays:
Type in all cases: in vivo
Linognathus vituli = test: Pour-on efficacy against Linognathus vituli (sucking lice) in cattle (Example 16)
Experimental: The efficacy of two pour-on formulations of the invention comprising isoxazoline Compound A at doses of 2.5 mg/kg and 10 mg/kg were tested against natural and induced infestations with Linognathus vituli (sucking lice) in cattle compared with an untreated control. Four healthy head of cattle weighing between 100 to 300 kg were used in each study group. Cattle in Group 1 were untreated (control). Cattle in Group 2 were treated on Day 0 with a pour-on formulation comprising Compound A at a concentration of 2.5% (w/v) in DES at a dose of 2.5 mg/kg; and cattle in Group 3 were treated on Day 0 with a pour-on formulation comprising Compound A at a concentration of 10% (w/v) in DES at a dose of 10 mg/kg. The formulation was applied by measuring the required amount of the solution into a marked disposable syringe and applying the material evenly along the mid-line of the back of each animal from the withers to the tail head.
Live lice (adults plus nymphs) were counted on days 2, 7, 14, 21, 28, 35, 42, 49 and 56 by counting lice on six selected sites approximately 5 cm×15 cm on the body surface of the animal by direct examination. In the absence of lice on the selected sites, a thorough body search was conducted. The total louse counts per animal were determined by summation of the live louse numbers at each site per animal. Tables 17A and 17B below show the efficacy of the two pour-on formulations against Linognathus vituli over 56 days. As the tables show, both pour-on formulations were efficacious through at least day 56 of the study with 100% efficacy observed starting day 7. Efficacy on day 2 of the study was greater than 90% in each of the study groups. The long lasting efficacy against Linognathus vituli from one topical treatment is unexpected and surprising.

Ctenocephalides felis = test: Spot-on efficacy at 1 mg/kg against Ctenocephalides felis fleas in cats (Example 7); conditions: for efficacy against fleas: Group 2 (DMI)
Experimental: The efficacy of several spot-on formulations comprising Cmpd. A dosed at 1 mg/kg body weight in different carrier vehicles against fleas in cats was studied. Five cats each were allocated to 6 Treatment Groups. The […] per study group were subjected to weekly infestations followed by 24 h flea counts for 5 to 8 weeks, according to the following Group allocations: Group 1—untreated control; Group 2-1.0% (w/v) Cmpd. A in DMI; Group 3-1.0% (w/v) Cmpd. A in diethyl sebacate (DES); Group 4-1.0% (w/v) Cmpd. A in 9% lauryl lactate+DES; Group 5—1% (w/v) Cmpd. A in 8% ethyl oleate+DES; and Group 6-1% (w/v) Cmpd. A in a vehicle comprising Transcutol®+10% (w/v) ethanol+5% polyvinylpyrrolidone+5% TWEEN 80. Cats were infested with approximately 100 C. felis on Day −1 and treated on Day 0 with the corresponding spot-on formulation by application of the formulation directly on the skin in the midline of the neck, between the base of the skull and the shoulder blades in a single spot using a 1 mL syringe. Twelve hours after treatment, fleas were removed and counted. The cats were immediately re-infested with approximately 100 fleas. Fleas were removed and counted on Day 1 at approximately 24 hours post-treatment. Cats were also infested with fleas on Days 7, 21, […], 35, 42 and 49. Fleas were removed and counted approximately 24 hours after infestation on Days 8, 22, 29, 36, 43 and 50.

Haematobia irritans = test: Pour-on efficacy against Haematobia irritans (horn fly) in cattle (Example 14); conditions: for % Reduction: Group 2: pour-on 10% in DES, 1 ml/10 kg
Experimental: The efficacy of a pour-on formulation of the invention comprising isoxazoline Compound A was tested and compared with an untreated control. Two healthy, female Angus crossbread cattle of one year of age weighing between 224 to 330 kg were used in each study group. Cattle in Group 1 were untreated (control) and cattle in Group 2 were treated with a pour-on formulation comprising Compound A at a concentration of 10% (w/v) in DES at a dose of 1 ml/10 kg once on Day 0. The formulation was applied by measuring the required amount of the solution into a marked disposable syringe and applying the material evenly along the mid-line of the back of each animal from the withers to the tail head. Each animal was infested with approximately 200 horn flies released into each of the animal rooms on Day 1, approximately 24 hours post treatment. Approximately 200 horn flies were released again on Days 7, 14, 21, 28 and 36. Horn fly counts were performed at 5 hours and 24 hours after each infestation. Tables 14A and 14B below show the efficacy of the pour-on formulation of the invention.

O=C(CNC(=O)c1ccc(C2=NOC(c3cc(Cl)cc(C(F)(F)F)c3)(C(F)(F)F)C2)c2ccccc12)NCC(F)(F)F (stereo not shown) [Compound A, 4-[5-[3-chloro-5-(trifluoromethyl)phenyl]-4,5-dihydro-5-(trifluoromethyl)-3-isoxazolyl]-N-[2-oxo-2-[(2,2,2-trifluoroethyl)amino]ethyl]-1-naphthalanecarboxamide]
% Reduction (Linognathus vituli; Group 2: pour-on 2.5% in DES, 2.5 mg/kg, Day 2): 92% | % Reduction (Linognathus vituli; Group 2: pour-on 2.5% in DES, 2.5 mg/kg, Day 7): 100% | % Reduction (Linognathus vituli; Group 2: pour-on 2.5% in DES, 2.5 mg/kg, Day 14): 100% | % Reduction (Linognathus vituli; Group 2: pour-on 2.5% in DES, 2.5 mg/kg, Day 21): 100% | % Reduction (Linognathus vituli; Group 2: pour-on 2.5% in DES, 2.5 mg/kg, Day 28): 100% | % Reduction (Linognathus vituli; Group 3: pour-on 10% in DES, 10 mg/kg, Day 2): 98% | % Reduction (Linognathus vituli; Group 3: pour-on 10% in DES, 10 mg/kg, Day 7): 100% | % Reduction (Linognathus vituli; Group 3: pour-on 10% in DES, 10 mg/kg, Day 14): 100% | % Reduction (Linognathus vituli; Group 3: pour-on 10% in DES, 10 mg/kg, Day 21): 100% | % Reduction (Linognathus vituli; Group 3: pour-on 10% in DES, 10 mg/kg, Day 28): 100% | efficacy against Linognathus vituli (Linognathus vituli; both pour-on formulations, starting day 7 through at least day 56): 100% | efficacy against Linognathus vituli (Linognathus vituli; each of the study groups, day 2): greater than 90% | % Reduction (Linognathus vituli; live lice counts, Group 2: pour-on 2.5% (w/v) in DES, 2.5 mg/kg, Day 35): 92% | % Reduction (Linognathus vituli; live lice counts, Group 2: pour-on 2.5% (w/v) in DES, 2.5 mg/kg, Day 42): 100% | % Reduction (Linognathus vituli; live lice counts, Group 2: pour-on 2.5% (w/v) in DES, 2.5 mg/kg, Day 49): 100% | % Reduction (Linognathus vituli; live lice counts, Group 2: pour-on 2.5% (w/v) in DES, 2.5 mg/kg, Day 56): 100% | % Reduction (Linognathus vituli; live lice counts, Group 3: pour-on 10% (w/v) in DES, 10 mg/kg, Day 35): 98% | % Reduction (Linognathus vituli; live lice counts, Group 3: pour-on 10% (w/v) in DES, 10 mg/kg, Day 42): 100% | % Reduction (Linognathus vituli; live lice counts, Group 3: pour-on 10% (w/v) in DES, 10 mg/kg, Day 49): 100% | % Reduction (Linognathus vituli; live lice counts, Group 3: pour-on 10% (w/v) in DES, 10 mg/kg, Day 56): 100% | efficacy against fleas (Ctenocephalides felis; until Day 50): above 85% | efficacy against fleas (Ctenocephalides felis; until at least Day 43): above 90% | % Reduction (Ctenocephalides felis; Group 2: 1.0% in DMI, 1 mg/kg, Day 0 (12 hr)): 22.3% | % Reduction (Ctenocephalides felis; Group 2: 1.0% in DMI, 1 mg/kg, Day 1): 28.0% | % Reduction (Ctenocephalides felis; Group 2: 1.0% in DMI, 1 mg/kg, Day 8): 99.3% | % Reduction (Ctenocephalides felis; Group 2: 1.0% in DMI, 1 mg/kg, Day 22): 99.5% | % Reduction (Ctenocephalides felis; Group 2: 1.0% in DMI, 1 mg/kg, Day 29): 98.5% | % Reduction (Ctenocephalides felis; Group 2: 1.0% in DMI, 1 mg/kg, Day 36): 94.2% | % Reduction (Ctenocephalides felis; Group 2: 1.0% in DMI, 1 mg/kg, Day 43): 94.3% | % Reduction (Ctenocephalides felis; Group 2: 1.0% in DMI, 1 mg/kg, Day 50): 87.7% | % Reduction (Ctenocephalides felis; Group 3: 1.0% in DES, 1 mg/kg, Day 0 (12 hr)): 9.6% | % Reduction (Ctenocephalides felis; Group 3: 1.0% in DES, 1 mg/kg, Day 1): 72.7% | % Reduction (Ctenocephalides felis; Group 3: 1.0% in DES, 1 mg/kg, Day 8): 99.7% | % Reduction (Ctenocephalides felis; Group 3: 1.0% in DES, 1 mg/kg, Day 22): 97.4% | % Reduction (Ctenocephalides felis; Group 3: 1.0% in DES, 1 mg/kg, Day 29): 95.1% | % Reduction (Ctenocephalides felis; Group 3: 1.0% in DES, 1 mg/kg, Day 36): 79.3% | % Reduction (Ctenocephalides felis; Group 3: 1.0% in DES, 1 mg/kg, Day 43): 72.2% | % Reduction (Ctenocephalides felis; Group 3: 1.0% in DES, 1 mg/kg, Day 50): 44.8% | % Reduction (Ctenocephalides felis; Group 4: 1.0% in 9% lauryl lactate+DES, 1 mg/kg, Day 0 (12 hr)): 9.2% | % Reduction (Ctenocephalides felis; Group 4: 1.0% in 9% lauryl lactate+DES, 1 mg/kg, Day 1): 36.5% | % Reduction (Ctenocephalides felis; Group 4: 1.0% in 9% lauryl lactate+DES, 1 mg/kg, Day 8): 99.7% | % Reduction (Ctenocephalides felis; Group 4: 1.0% in 9% lauryl lactate+DES, 1 mg/kg, Day 22): 98.5% | % Reduction (Ctenocephalides felis; Group 4: 1.0% in 9% lauryl lactate+DES, 1 mg/kg, Day 29): 98.1% | % Reduction (Ctenocephalides felis; Group 4: 1.0% in 9% lauryl lactate+DES, 1 mg/kg, Day 36): 89.3% | % Reduction (Ctenocephalides felis; Group 4: 1.0% in 9% lauryl lactate+DES, 1 mg/kg, Day 43): 92.7% | % Reduction (Ctenocephalides felis; Group 4: 1.0% in 9% lauryl lactate+DES, 1 mg/kg, Day 50): 79.2% | % Reduction (Ctenocephalides felis; Group 5: 1% in 8% ethyl oleate+DES, 1 mg/kg, Day 0 (12 hr)): 65.9% | % Reduction (Ctenocephalides felis; Group 5: 1% in 8% ethyl oleate+DES, 1 mg/kg, Day 1): 77.2% | % Reduction (Ctenocephalides felis; Group 5: 1% in 8% ethyl oleate+DES, 1 mg/kg, Day 8): 98.4% | % Reduction (Ctenocephalides felis; Group 5: 1% in 8% ethyl oleate+DES, 1 mg/kg, Day 22): 96.9% | % Reduction (Ctenocephalides felis; Group 5: 1% in 8% ethyl oleate+DES, 1 mg/kg, Day 29): 95.0% | % Reduction (Ctenocephalides felis; Group 5: 1% in 8% ethyl oleate+DES, 1 mg/kg, Day 36): 85.5% | % Reduction (Ctenocephalides felis; Group 5: 1% in 8% ethyl oleate+DES, 1 mg/kg, Day 43): 79.7% | % Reduction (Ctenocephalides felis; Group 5: 1% in 8% ethyl oleate+DES, 1 mg/kg, Day 50): 64.0% | % Reduction (Ctenocephalides felis; Group 6: 1% in Transcutol+10% ethanol+5% polyvinylpyrrolidone+5% TWEEN 80, 1 mg/kg, Day 0 (12 hr)): 17.7% | % Reduction (Ctenocephalides felis; Group 6: 1% in Transcutol+10% ethanol+5% polyvinylpyrrolidone+5% TWEEN 80, 1 mg/kg, Day 1): 75.6% | % Reduction (Ctenocephalides felis; Group 6: 1% in Transcutol+10% ethanol+5% polyvinylpyrrolidone+5% TWEEN 80, 1 mg/kg, Day 8): 100.0% | % Reduction (Ctenocephalides felis; Group 6: 1% in Transcutol+10% ethanol+5% polyvinylpyrrolidone+5% TWEEN 80, 1 mg/kg, Day 22): 99.3% | % Reduction (Ctenocephalides felis; Group 6: 1% in Transcutol+10% ethanol+5% polyvinylpyrrolidone+5% TWEEN 80, 1 mg/kg, Day 29): 97.5% | % Reduction (Ctenocephalides felis; Group 6: 1% in Transcutol+10% ethanol+5% polyvinylpyrrolidone+5% TWEEN 80, 1 mg/kg, Day 36): 93.8% | % Reduction (Ctenocephalides felis; Group 6: 1% in Transcutol+10% ethanol+5% polyvinylpyrrolidone+5% TWEEN 80, 1 mg/kg, Day 43): 93.9% | % Reduction (Ctenocephalides felis; Group 6: 1% in Transcutol+10% ethanol+5% polyvinylpyrrolidone+5% TWEEN 80, 1 mg/kg, Day 50): 79.6% | Efficacy against horn flies (Haematobia irritans; 24 hours after infestation through the end of the study (day 36)): at least 90% | % Reduction (Haematobia irritans; Day 1 (5 h)): 81.2% | % Reduction (Haematobia irritans; Day 2 (24 h)): 99.6% | % Reduction (Haematobia irritans; Day 7 (5 h)): 84.2% | % Reduction (Haematobia irritans; Day 8 (24 h)): 99.7% | % Reduction (Haematobia irritans; Day 14 (5 h)): 89.5% | % Reduction (Haematobia irritans; Day 15 (24 h)): 99.2% | % Reduction (Haematobia irritans; Day 21 (5 h)): 67.6% | % Reduction (Haematobia irritans; Day 22 (24 h)): 97.4% | % Reduction (Haematobia irritans; Day 28 (5 h)): 11.7% | % Reduction (Haematobia irritans; Day 29 (24 h)): 90.4%

From patent publication US11464763B2, “Parasiticidal compositions comprising an isoxazoline active agent, methods and uses thereof” (BOEHRINGER INGELHEIM ANIMAL HEALTH USA INC., priority 2011, dated 2022)
